# Data taken from patent US9982005B2, “Macrolides and methods of their preparation and use” (President and Fellows of Harvard College, priority 2013, dated 2018).
# Like-named read-outs stand apart in the source and are kept apart here.
# Assays:
# Assay type in all cases: cell-based
# [1] = tested on: SA101 S. aureus ATCC29213; experiment: broth dilution MIC, S. aureus SA101; settings: Staphylococcus aureus, ATCC29213, SA101 S. aureus ATCC29213; read-out: MIC
# How it was run: (§1)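 An azithromycin control accompanied the test macrolides, which were assayed by CLSI-standard broth microdilution-type MIC determination. Some strains carry constitutive or inducible macrolide-resistance genotypes.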
# [2] = tested on: SA183 S. aureus ermA positive msrA unknown; experiment: broth dilution MIC, S. aureus SA183; settings: Staphylococcus aureus
# Description: (§2) We have collected MIC data for a total of 50 novel macrolides that this platform has produced against over 21 unique strains of B. subtilis, E. coli, S. aureus, S. pneumoniae, and H. influenzae, including several multidrug-resistant strains, with a special focus on macrolide resistant mechanisms (vide supra). Azithromycin was included as a control macrolide. CLSI standard procedures for broth dilution MIC determination were used. […] These genotypes can be constitutive or inducible. The finding that C4-epi (unnatural) isomers of the “azaketolide” macrolide class have enhanced activities relative to C4 natural isomers is very exciting.
# [3] = tested on: SA418 S. aureus ermA negative msrA positive; experiment: broth dilution MIC, S. aureus SA418; settings: Staphylococcus aureus
# Description: as §2
# [4] = tested on: SA506 S. aureus ermA positive msrA unknown; experiment: broth dilution MIC, S. aureus SA506; settings: Staphylococcus aureus
# Description: as §2
# [5] = tested on: SA557 S. aureus ermA unknown msrA positive; experiment: broth dilution MIC, S. aureus SA557; settings: Staphylococcus aureus; SA557 S. aureus ermA unknown msrA positive; read-out: MIC
# Description: as §2
# [6] = tested on: SA1707 S. aureus ermA negative msrA positive; experiment: broth dilution MIC, S. aureus SA1707; settings: Staphylococcus aureus
# Description: as §2
# [7] = tested on: SA1708 S. aureus ermA positive msrA negative; experiment: broth dilution MIC, S. aureus SA1708; settings: Staphylococcus aureus
# Description: as §2
# [8] = tested on: Spn 106 S. pneumonia ATCC49619; experiment: broth dilution MIC, S. pneumoniae Spn 106; settings: Streptococcus pneumoniae
# Description: as §2
# [9] = tested on: Spn160 S. pneumoniae ermB unknown mefA positive; experiment: broth dilution MIC, S. pneumoniae Spn160; settings: Streptococcus pneumoniae; Spn160 S. pneumoniae ermB unknown mefA positive; read-out: MIC
# Description: as §2
# [10] = tested on: Spn1509 S. pneumoniae ermB positive mefA negative; experiment: broth dilution MIC, S. pneumoniae Spn1509; settings: Streptococcus pneumoniae; Spn1509 S. pneumoniae ermB positive mefA negative; read-out: MIC
# Description: as §2
# [11] = tested on: Spn1533 S. pneumoniae ermB positive mefA positive; experiment: broth dilution MIC, S. pneumoniae Spn1533; settings: Streptococcus pneumoniae
# Description: as §2
# [12] = tested on: Spn1537 S. pneumoniae ermB positive mefA positive; experiment: broth dilution MIC, S. pneumoniae Spn1537; settings: Streptococcus pneumoniae
# Description: as §2
# [13] = tested on: Spn1427 S. pneumoniae ermB positive mefA negative; experiment: broth dilution MIC, S. pneumoniae Spn1427; settings: Streptococcus pneumoniae
# Description: as §2
# [14] = tested on: HI175 H. influenzae ATCC49247; experiment: broth dilution MIC, H. influenzae HI175; settings: Haemophilus influenzae
# Description: as §2
# [15] = tested on: HI281 H. influenzae; experiment: broth dilution MIC, H. influenzae HI281; settings: Haemophilus influenzae
# Description: as §2
# [16] = tested on: EC107 E. coli ATCC25922; experiment: broth dilution MIC, E. coli EC107; settings: Escherichia coli, read-out: MIC
# How it was run: as §1
# [17] = tested on: EC878 E. coli tolC; experiment: broth dilution MIC, E. coli EC878; settings: Escherichia coli
# How it was run: as §1
# [18] = tested on: EC882 E. coli imp; experiment: broth dilution MIC, E. coli EC882; settings: Escherichia coli
# How it was run: as §1
# [19] = tested on: BS1723 B. subtilis BS168 WT wild type; experiment: broth dilution MIC, B. subtilis BS1723; settings: Bacillus subtilis, BS1723 B. subtilis BS168 WT wild type; read-out: MIC
# How it was run: as §1
# [20] = tested on: BS1725 B. subtilis ermC; experiment: broth dilution MIC, B. subtilis BS1725; settings: Bacillus subtilis, BS1725 B. subtilis ermC (+ery)
# How it was run: as §1
# [21] = Spn 106 S. pneumonia ATCC49619, read-out: MIC
MIC [1] [µg/mL],MIC [2] [µg/mL],MIC [3] [µg/mL],MIC [4] [µg/mL],MIC [5] [µg/mL],MIC [6] [µg/mL],MIC [7] [µg/mL],"MIC [8, 21] [µg/mL]",MIC [9] [µg/mL],MIC [10] [µg/mL],MIC [11] [µg/mL],MIC [12] [µg/mL],MIC [13] [µg/mL],MIC [14] [µg/mL],MIC [15] [µg/mL],Compound,further results
> 32,> 32,> 32,> 32,> 32,> 32,> 32,32,> 32,> 32,> 32,> 32,> 32,> 32,32,CC[C@H]1OC(=O)[C@H](C)C(=O)C[C@@H](O[C@@H]2OC(C)CC(N(C)C)C2O)[C@](C)(OC)C[C@@H](C)C(=O)N[C@H](C)[C@H]2N(CCCCn3cc(-c4ccccn4)nn3)C(=O)O[C@]12C (some centres unmarked) [FSM-20739],
> 32,> 32,> 32,> 32,> 32,> 32,> 32,8,> 32,> 32,> 32,> 32,> 32,> 32,32,CC[C@H]1OC(=O)[C@H](C)C(=O)[C@H](C)[C@@H](O[C@@H]2OC(C)CC(N(C)C)C2O)[C@](C)(OC)C[C@@H](C)C(=O)N[C@H](C)[C@H]2N(CCCCn3cc(-c4ccccn4)nn3)C(=O)O[C@]12C (some centres unmarked) [FSM-20781],

Compound,MIC [1] [µg/mL],MIC [2] [µg/mL],MIC [3] [µg/mL],MIC [4] [µg/mL],MIC [5] [µg/mL],MIC [6] [µg/mL],MIC [7] [µg/mL],"MIC [8, 21] [µg/mL]",MIC [9] [µg/mL],MIC [10] [µg/mL],MIC [11] [µg/mL],MIC [12] [µg/mL],MIC [13] [µg/mL],MIC [14] [µg/mL],MIC [15] [µg/mL],further results
CC[C@H]1OC(=O)C(C)C(=O)[C@@H](C)[C@@H](O[C@@H]2OC(C)CC(N(C)C)C2O)[C@](C)(OC)C[C@@H](C)CN[C@H](C)[C@H]2N(CCCCn3cc(-c4ccccn4)nn3)C(=O)O[C@]12C (some centres unmarked) [FSM-20754],2,> 32,4,> 32,4,4,4,,0.25,4,> 32,> 32,> 32,2,8,MIC ([8]; ATCC49619): 0.0625 µg/mL; MIC [16]: 16 µg/mL; MIC [17]: 0.5 µg/mL; MIC [18]: 0.125 µg/mL; MIC [19]: 2 µg/mL; MIC [20]: 32 µg/mL
